What was measured:
[1] = system: A431 cells which overexpresses EGFR; assay: Flow cytometry assay of binding to A431 cells; format: cell-based; settings: 100 nM, 30 min on ice; FIG. 5b and c (confocal and flow cytometry)
Protocol: FIG. 20 depicts the fluorescence intensity (measured by flow cytometry, λex=488 nm) of untreated A431 and MCF7 cells (ctrl) shown in dark grey fill (Blank), and cells treated with either GFP (100 nM, 30 min), or with ZEGFR-Fc-GFP (100 nM, 30 min) (shown by arrow), respectively. Forward scatter (FSC-A) versus side scatter (SSC-A) were used to gate intact cells.
To study binding capacities of ZEGFR-Fc-GFP, A-431 (ATCC, USA) and MCF-7 (ATCC, US) live cells were washed three times with PBS (HyClone, USA), trypsinized by 0.05% Trypsin-EDTA (Gibco, USA), and then resuspended in chilled DMEM (Gibco, USA) with 10% FBS (Gibco, USA). One million cells of each cell line were then incubated with ZEGFR-Fc-GFP (100 nM) and GFP (100 nM) on ice for 30 min. After incubation, the cells were washed with chilled PBS for three times and analyzed by the Fortessa X-20 flow cytometer (BD, USA). The cytometer was set to record 10,000 events per sample, to excite the fluorophore with 488 nm laser, and to collect emitting fluorescent signals in 530/30 nm. The generated raw data were analyzed by Flowjo™ 10 (BD, USA).

[2] = system: EGFR-positive A431 cells; assay: Live cell confocal imaging of binding to A431 cells; format: cell-based; settings: confocal fluorescence microscopy, 100 nM, 30 min on ice; FIG. 21
Protocol: ZEGFR-FC-GFP staining of the membrane was much brighter than that for GFP when the top left panel of each block is compared. The plasma membrane was stained with PKH26 red-fluorescent dye and is shown in the lower left panel and merged image of each block. Scale bar=20 μm.
To visualize ZEGFR-Fc-GFP binding activities, A431 and MCF-7 cells were seeded on an 8-well chamber slide (ibidi, USA) and incubated at 37° C. under 5% CO2 overnight. The cells were stained with 2 μM PKH26 red-fluorescent dye (Sigma, USA) for 10 min at 37° C. The stained cells were then incubated with ZEGFR-Fc-GFP (100nM) and GFP (100nM) on ice for 30 min. After incubation, the cells were washed with chilled PBS for three times and fixed with cold 4% formaldehyde for 15 min. The fixed cells were imaged by the LSM 980 confocal microscope (Zeiss, Germany). Microscopic key settings are as follows: 1) excitation laser wavelengths: 488 nm and 561 nm; 2) emission fillers: 507-552 nm and 575-620 nm; 3) imaging mode: Z-stack. The 3D Z-stack images were processed into 2D images by the technique MIP (maximum intensity projection) using the Zen software (Zeiss, Germany).

ZEGFR-Fc-GFP: dual-ligated product of dimeric fusion protein ZEGFR-Fc-NQL (affibody ZEGFR and IgG Fc domain) with GI-GGGSGGGS-GFP
binding towards A431 cells [1]: specific binding
staining of the membrane compared with GFP [2]: much brighter

Source: patent US20250270610A1, “Improving the Efficiency of PAL-Catalyzed Protein Ligation By A Cascade Enzymatic Scheme” (priority 2022, published 2025)
